According to patent US11596622B2, “Mazindol treatment for heroin dependence and substance use disorder” (NLS Pharmaceutics AG, priority 2017, dated 2023):

Columns and labels:
[1] = Nakashima et al., 2004; cited from earlier work
μ (MOP) (h) = target: T1, μ (MOP) (h) (Homo sapiens, UniProt P35372); assay: Radioligand binding, μ opioid receptor (Eurofins CEREP)
T1 construct: Eurofins CEREP
Source text: (§1) Table A discloses mazindol and Met tested at […] and the compound binding calculated as a percent inhibition of the binding of a radioactively labeled ligand specific for each target (Eurofins CEREP, France).
An inhibition or stimulation of more than 50% is considered a significant effect of the test compounds. Fifty percent is a common cut-off for further investigation (i.e. determination of IC50 or EC50 values from concentration-response curves). Tables B and C display the binding profiles for Mazindol and Met.
(§2) The results are expressed as a percent of control specific binding obtained in the presence of the test compounds:
(§3) [formula] and as a percent inhibition of control specific binding obtained in the presence of the test compounds: […]

[2] = animal toxicology studies; cited from earlier work
[3] = Pharmacokinetics of mazindol after oral administration; settings: immediate release formulation
Dopamine transporter(h) = target: T2, Dopamine transporter(h) (Homo sapiens, UniProt Q01959); assay: Radioligand binding, dopamine transporter (Eurofins CEREP); settings: 1.0 × 10^−05 M; antagonist radioligand; read-out: percent inhibition of the binding of a radioactively labeled ligand
T2 construct: Eurofins CEREP
T2 sequence (Q01959 whole entry): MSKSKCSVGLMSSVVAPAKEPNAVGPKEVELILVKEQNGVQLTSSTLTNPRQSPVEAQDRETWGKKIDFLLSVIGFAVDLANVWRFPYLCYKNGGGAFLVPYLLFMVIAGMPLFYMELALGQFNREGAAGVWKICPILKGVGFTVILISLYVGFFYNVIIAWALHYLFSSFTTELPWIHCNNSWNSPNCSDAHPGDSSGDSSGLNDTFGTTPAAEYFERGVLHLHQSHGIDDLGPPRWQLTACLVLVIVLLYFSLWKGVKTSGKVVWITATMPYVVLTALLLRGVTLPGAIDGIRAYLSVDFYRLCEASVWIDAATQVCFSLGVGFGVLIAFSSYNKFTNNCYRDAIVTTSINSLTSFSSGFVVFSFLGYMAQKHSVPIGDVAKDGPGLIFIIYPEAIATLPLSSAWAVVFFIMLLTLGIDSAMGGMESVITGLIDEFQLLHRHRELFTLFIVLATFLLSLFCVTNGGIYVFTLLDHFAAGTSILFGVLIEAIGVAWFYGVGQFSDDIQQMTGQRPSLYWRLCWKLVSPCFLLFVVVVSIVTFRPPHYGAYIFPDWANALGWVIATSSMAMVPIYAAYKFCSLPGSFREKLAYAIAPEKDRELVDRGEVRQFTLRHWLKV
Source text: as §1
An inhibition or stimulation of more than 50% is considered a significant effect of the test compounds. Fifty percent is a common cut-off for further investigation (i.e. determination of IC50 or EC50 values from concentration-response curves).
as §2, §3

T1 sequence (P35372 whole entry): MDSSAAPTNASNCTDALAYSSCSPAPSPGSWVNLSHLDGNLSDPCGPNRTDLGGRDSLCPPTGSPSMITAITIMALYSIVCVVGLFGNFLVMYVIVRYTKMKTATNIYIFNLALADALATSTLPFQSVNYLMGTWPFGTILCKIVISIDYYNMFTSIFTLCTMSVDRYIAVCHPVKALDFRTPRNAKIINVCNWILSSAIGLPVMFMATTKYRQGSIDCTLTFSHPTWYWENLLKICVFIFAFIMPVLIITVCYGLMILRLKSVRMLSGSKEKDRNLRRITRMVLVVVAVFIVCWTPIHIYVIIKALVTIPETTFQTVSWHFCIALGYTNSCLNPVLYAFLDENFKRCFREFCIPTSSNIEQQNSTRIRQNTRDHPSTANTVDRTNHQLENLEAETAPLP

OC1(c2ccc(Cl)cc2)c2ccccc2C2=NCCN21 (stereo not drawn) [Mazindol, 5-(4-chlorophenyl)-2,5-dihydro-3 H-imadazo[2,1-a]isoindol-5-ol]
stability (hydrolysis to Met) [1]: hydrolysis of mazindol at moderate temperatures in neutral and alkaline aqueous solutions | inhibition at 10 µM (μ (MOP) (h); 1.0 × 10^−05 M, agonist radioligand, read-out: percent inhibition of the binding of a radioactively labeled ligand): 89.9% | affinity for μ-opioid receptors (μ (MOP) (h); compared with amphetamines): higher affinity | carcinogenic effect [2]: no carcinogenic effect | mutagenic effect [2]: no mutagenic effect | toxic potential [2]: very low | toxicology effect in reproduction [2]: no toxicology effect in reproduction | time to steady-state concentrations [3]: 30 to 55 h | inhibition at 10 µM (Dopamine transporter(h)): 98.2%
